# Measured values published in PubChem BioAssay (NCI).
# Values joined by “and” are separate entries in the source; they are usually repeats but may differ in a detail not shown here. Equal values may be shown once.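 Test compounds were applied to cells in 96-well plates for 48 hours at 5 doses. Here, GI50 denotes the concentration required for 50% inhibition of growth. TGI is the concentration that stops growth completely.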
# Experiments:
# Experiment in all cases: inhibition of tumour cell growth, NCI panel, 48 h
# CCRF-CEM leukemia = system: CCRF-CEM leukemia
# TK-10 renal = system: TK-10 renal
# SNB-19 CNS = system: SNB-19 CNS
# SNB-75 CNS = system: SNB-75 CNS
# NCI-H23 lung = system: NCI-H23 lung
# KM12 colon = system: KM12 colon
# OVCAR-4 ovarian = system: OVCAR-4 ovarian
# MDA-MB-231 breast = system: MDA-MB-231 breast
# MCF7 breast = system: MCF7 breast
# MDA-MB-435 = system: MDA-MB-435
Compound,TGI (CCRF-CEM leukemia),TGI (TK-10 renal),TGI (SNB-19 CNS),TGI (SNB-75 CNS),TGI (NCI-H23 lung),TGI (KM12 colon),TGI (OVCAR-4 ovarian),GI50 (CCRF-CEM leukemia),GI50 (TK-10 renal),GI50 (SNB-19 CNS),GI50 (SNB-75 CNS),GI50 (NCI-H23 lung),GI50 (KM12 colon),GI50 (OVCAR-4 ovarian),GI50 (MDA-MB-231 breast),TGI (MDA-MB-231 breast),GI50 (MCF7 breast),TGI (MCF7 breast),TGI (MDA-MB-435),GI50 (MDA-MB-435)
O=[N+]([O-])C=C(c1ccc(Cl)cc1)c1ccc(Cl)cc1,67.7 µM,33.5 µM,36.5 µM,39.7 µM,25.6 µM,30.1 µM,27.6 µM,–,–,–,–,–,–,–,–,–,–,–,–,–
C[CH2][Ge]([CH2]C)([CH2]C)[O]C(=O)C(OC(C)=O)c1ccccc1 (stereo unspecified),> 100 µM,> 100 µM,> 100 µM,> 100 µM,> 100 µM,> 100 µM,> 100 µM,24100 nM,> 100 µM,> 100000 nM,> 100000 nM,> 100 µM,> 100000 nM,> 100 µM,–,–,–,–,–,–
N#C/C(=C/c1ccc2c(c1)OCO2)C(=O)c1ccccc1,> 100 µM,> 100 µM,> 100 µM,> 100 µM,> 100 µM,> 100 µM,> 100 µM,–,–,–,–,–,–,–,–,–,–,–,–,–
Cc1cccc(C2SCc3nc4ccccc4n32)c1 (stereo unspecified),> 100 µM,56.8 µM,–,20.7 µM,–,79.8 µM,> 100 µM,–,–,–,–,–,–,–,–,–,–,–,–,–
COc1ccc2c3c([nH]c2c1[N+](=O)[O-])C(C)N(Cc1ccccc1)CC3 (stereo unspecified),> 100 µM,> 100 µM,> 100 µM,–,> 100 µM,> 100 µM,> 100 µM,–,–,–,–,–,–,–,–,–,–,–,–,–
COc1ccc2c(c1)[nH]c(=O)c1c3cccc(F)c3cn21,0.304 µM,> 100 µM,> 69.6 µM,5.44 µM,> 52.3 µM,> 100 µM,28.8 µM,28.2 nM,9.55 µM,218 nM,26.2 nM,0.21 µM,43.6 nM,0.126 µM,0.283 µM,> 100 µM,220 nM,> 94.6 µM,–,–
O=C(/C=C/c1ccccc1F)c1ccc(Cl)c(Cl)c1,67.8 µM,> 100 µM,> 100 µM,98.5 µM,24 µM,45 µM,> 100 µM,–,–,–,–,–,–,–,–,–,–,–,–,–
c1ccc(C2OC3(CCC[C@H]4C[C@H]43)O[C@H]2c2ccccc2)cc1 (stereo partly specified),49.9 µM,> 100 µM,> 100 µM,91.9 µM,> 100 µM,> 100 µM,> 100 µM,–,–,–,–,–,–,–,–,–,–,–,–,–
CCCCCCCCCCCCCCCCCCn1cc[n+](C)c1,–,1.97 µM and 1.44 µM,3.57 µM and 2.42 µM,–,–,0.879 µM,–,127 nM and 458 nM,0.47 µM and 0.26 µM,1220 nM and 1180 nM,–,–,275 nM,0.645 µM and 0.518 µM,1.08 µM,2.52 µM,513 nM and 1000 nM,1.79 µM and 2.35 µM,–,–
CCc1cccc(C)c1NC(=O)C(=O)CC(=O)c1ccc(Cl)s1,> 100 µM,> 100 µM,> 100 µM,> 100 µM,> 100 µM,> 100 µM,> 100 µM,–,–,–,–,–,–,–,–,–,–,–,–,–
COc1ccc(Cc2coc3ccccc3c2=O)cc1OC,> 100 µM,> 100 µM,> 100 µM,> 100 µM,> 100 µM,–,> 100 µM,–,–,–,–,–,–,–,–,> 100 µM,–,> 100 µM,> 100 µM,–
COc1ccc2c(c1OC)CO[C@@H]2[C@H]1c2c(cc3c(c2OC)OCO3)CCN1S(=O)(=O)c1cn(C)cn1,> 100 µM,> 100 µM,> 100 µM,> 100 µM,> 100 µM,> 100 µM,> 100 µM,944 nM,> 100 µM,1760 nM,1600 nM,3.43 µM,684 nM,6.65 µM,4.49 µM,> 100 µM,407 nM,> 100 µM,–,–
CC1/C(=N\O)CC(c2ccccc2)N(C)C1c1ccccc1 (stereo unspecified),> 100 µM,> 100 µM,> 100 µM,> 100 µM,> 100 µM,> 100 µM,> 100 µM,–,–,–,–,–,–,–,–,–,–,–,–,–
O=C1C=CC=C/C1=C1/SC(c2ccccc2)=C(O)N1c1ccccc1,–,> 100 µM,> 100 µM,> 100 µM,> 100 µM,> 100 µM,> 100 µM,–,–,–,–,–,–,–,–,–,–,–,–,–
CN(C)C(=N/O)/C(=N\O)N(C)C,> 100 µM,> 100 µM,> 100 µM,> 100 µM,> 100 µM,> 100 µM,> 100 µM,–,–,–,–,–,–,–,–,–,–,–,–,–
Nc1ccc(C2=CC(c3ccc(Cl)cc3)N3C=CSC3=N2)cc1 (stereo unspecified),–,28.5 µM,29 µM,22.8 µM,46.8 µM,3.86 µM,> 100 µM,–,11 µM,11800 nM,5290 nM,17.8 µM,1950 nM,13 µM,4.76 µM,46.9 µM,1220 nM,4.52 µM,6.76 µM,2430 nM
COc1ccc(-c2nc(-c3ccc(C)cc3)cn3ccnc23)cc1,> 50 µM,> 50 µM,> 50 µM,–,> 50 µM,> 50 µM,–,5470 nM,20.6 µM,13800 nM,–,> 50 µM,3250 nM,–,4.24 µM,38.8 µM,3050 nM,> 50 µM,> 50 µM,1760 nM
CN(c1ccc(C(=O)c2ccc(N(C)S(C)(=O)=O)cc2)cc1)S(C)(=O)=O,> 100 µM,> 100 µM,> 100 µM,> 100 µM,> 100 µM,> 100 µM,> 100 µM,–,–,–,–,–,–,–,–,–,–,–,–,–
NCCCC[C@@H]1NC(=O)[C@H](CC(=O)O)NC(=O)CNC(=O)[C@H](CCCN=C(N)N)NC(=O)[C@@H](N)CSSC[C@@H](C(=O)O)NC(=O)[C@H](CC(=O)O)NC(=O)[C@@H]2CCCN2C(=O)CNC1=O,> 100 µM,> 100 µM,> 100 µM,–,> 100 µM,> 100 µM,> 100 µM,> 100000 nM,> 100 µM,> 100000 nM,–,> 100 µM,> 100000 nM,> 100 µM,–,–,> 100000 nM,> 100 µM,> 100 µM,> 100000 nM
CC1=C(C(=O)Nc2ccccc2)C(c2cccc3ccccc23)C(C(=O)Nc2ccccc2)=C(C)N1,59.6 µM,96.7 µM,72.5 µM,47.7 µM,52.5 µM,–,–,–,–,–,–,–,–,–,–,–,–,–,–,–
O=C1N2Cc3c4ccc5c3CN3C(=O)N6Cc7c(ccc(c7CN1C6(c1ccccc1)C23c1ccccc1)OCCOCCNCCOCCO4)OCCOCCNCCOCCO5 (stereo unspecified),> 100 µM,56 µM,> 100 µM,> 100 µM,> 100 µM,> 100 µM,> 100 µM,–,–,–,–,–,–,–,–,–,–,–,–,–
